From US10301292B2, “Bicyclic compound” (Takeda Pharmaceutical Company Limited, priority 2014, dated 2019)

Legend:
human ACC1 = target: T1, human ACC1 (Homo sapiens, UniProt Q13085); assay: Measurement of ACC1 inhibitory activity (Malonyl-CoA production, RapidFire-mass spectrometry); type: biochemical; conditions: 10 μM of the test compound, recombinant human ACC1; for inhibition at 10 µM: read-out: ACC1 inhibitory rate (%) at 10 μM
T1 construct: His tag (from vector pFAST-BacHTc; protein captured on Ni-NTA) (N); made in house; host or cells: SF-9 insect cells, recombinant baculovirus BAC-ACC1
Description: (1) Cloning of Human ACC1 Gene and Preparation of Recombinant Baculovirus
Human ACC1 gene was cloned by PCR using a human liver cDNA library (Clontech) as a template and Primer 1 and Primer 2 shown below. Primer 1 and Primer 2 were prepared by adding SalI, NotI restriction enzyme recognition sequences based on the information of the base sequence of human ACC1 gene (Genbank Accession U19822).
PCR was performed using Pyrobest DNA polymerase (TAKARA BIO INC.). The obtained PCR product was cloned to pT7 Blue vector (Novagen) and after confirmation of the base sequence, digested with restriction enzymes SalI and XbaI. The obtained DNA fragment was inserted into pFAST-BacHTc (Invitrogen) digested with restriction enzymes SalI and XbaI to give expression plasmid ACC1/pFAST-BacHTc.
Using the expression plasmid ACC1/pFAST-BacHTc and BAC-TO-BAC Baculovirus Expression System (Invitrogen), virus stock BAC-ACC1 of recombinant Baculovirus was prepared.
(2) Preparation of ACC1 Protein
SF-9 cells (Invitrogen) were inoculated to a medium (10 L) for insect cells (Sf-900IISFM medium (Invitrogen) containing 5% fetal bovine serum (Trace), 50 mg/L Gentamicin (Wako Pure Chemical Industries, Ltd.), 0.1% Pluronic F-68 (Invitrogen)) at 1.0×10^6 cells/mL, and cultured with shaking in Wave Bioreactor (GE Healthcare) at 27° C., 20 rpm, rocking angle 10°, oxygen concentration 30%.
On day 2 of the culture, recombinant Baculovirus BAC-ACC1 was added, and the cells were cultured for 3 days. The culture medium was centrifuged at 4000×g for 10 min to give virus-infected cells. The cells were washed with phosphate buffered saline (Invitrogen) and centrifuged under the same conditions. The obtained cells were cryopreserved at −80° C.
The cryopreserved cells were thawed in ice and suspended in 800 mL of 25 mM HEPES buffer (pH 7.5) containing 10% Glycerol, 0.3 M NaCl, 1 mM EDTA, 25 mM Sodium β-Glycerophosphate and 1 mM Sodium Orthovanadate, and supplemented with Complete Protease Inhibitor (Roche). The obtained suspension was homogenized two times in a polytron homogenizer (Kinematica) at 20,000 rpm for 20 sec. The obtained cell disruption solution was clarified by centrifugation at 186,000×g for 60 min and the supernatant was passed through Ni-NTA Superflow Cartridges (5 mL) (QUIAGEN). Furthermore, it was washed with 25 mM HEPES buffer (pH 7.5) containing 20 mM Imidazole, 0.3 M NaCl, and eluted with 25 mM HEPES buffer (pH 7.5) containing 250 mM Imidazol, 0.3 M NaCl. The eluate was concentrated by Amicon Ultra-15 (Nihon Millipore K.K.) having a fraction molecular weight of 50K. The obtained concentrate was subjected to gel filtration with 50 mM HEPES buffer (pH 7.5) containing 10 mM MgCl2, 2 mM dithiothreitol, 10 mM tripotassium citrate, 0.3 M NaCl by using HiLoad 26/60 Superdex200 prep grade gel filtration column (GE Healthcare) to give ACC1. The obtained ACC1 was cryopreserved at −80° C.
(3) Measurement of ACC1 Inhibitory Activity
ACC1 obtained in the above-mentioned (2) was diluted with an enzyme reaction buffer (50 mM HEPES (pH 7.5), 10 mM MgCl2, 10 mM Tripottasium Citrate, 2 mM Dithiothreitol, 0.001% Fatty acid free BSA) to a concentration of 0.2 μg/ml, and the mixture was added to each well of a 384 well assay plate by 10 μl. A test compound dissolved in dimethyl sulfoxide (DMSO) was diluted with an enzyme reaction buffer and the resulting solution (5 μl) was added to each well. The mixture was incubated at room temperature for 60 min. Then, a substrate solution (50 mM KHCO3, 200 μM ATP, 200 μM Acetyl-CoA, 5 μl) was added to each well, and the mixture was reacted at room temperature for 30 min. The reaction was quenched by adding a reaction quenching liquid (1.3% formic acid, 0.2 μM Malonyl-^13C3-CoA) by 60 μL each to the obtained reaction mixtures (test compound addition group).
In addition, a reaction was performed in the same manner as above and without adding the test compound (test compound non-addition group). […]

HCT116 cells = assay: Growth inhibitory activity on HCT116 cell (CellTiter-Glo); type: cell-based; conditions: table head: 10 μM (text b2498: 1 μM), 3 days incubation; for inhibition at 10 µM: Homo sapiens, HCT-116, 72 h, read-out: HCT116 cell proliferation inhibitory rate (%) at 10 μM
Description: The growth inhibitory activity of the compound on HCT116 cell was evaluated by the following method.
HCT116 cells were seeded in a 384 well blackplate at 900 cells/30 μL/well, and maintained in an RPMI medium (Wako)) containing an assay medium (2% fetal bovine serum, 50 Unit/mL penicillin, 50 μg/mL streptomycin (Invitrogen). The next day, a test compound dissolved in dimethyl sulfoxide (DMSO) was diluted with the assay medium, and the obtained compound solution was added by 10 μL to each well of a plate containing HCT116 cells and incubated at 37° C., 5% CO2 (test compound addition group).
A similar reaction was performed without adding a test compound (test compound non-addition group).
Furthermore, a similar reaction was performed under the conditions without adding HCT116 cell and a test compound (control group).
After 3 days, 20 μL of a CellTiter-Glo reagent (Promega KK) was added to the well, and the mixture was stirred for 10 min. Thereafter, the luminescence value of each well was measured by the EnVision™ multilabel counter (Perkin Elmer Inc.).
The HCT116 cell proliferation inhibitory rate (%) of the test compound was determined by the following calculation formula. (1−(luminescence of test compound addition group−luminescence of control group)÷(luminescence of test compound nonaddition group−luminescence of control group))×100

inhibition at 10 µM (human ACC1)	SMILES	inhibition at 10 µM (HCT116 cells)	other results
94%	CC(=O)NC(C)c1ccc2cc(-c3ccc(Oc4cccc(OCC5CC5)c4)cn3)oc2c1 (centres unmarked) [Example 35, N-(1-(2-(5-(3-(cyclopropylmethoxy)phenoxy)pyridin-2-yl)-1-benzofuran-6-yl)ethyl)acetamide]	41%	–
100%	CC(=O)NC(C)c1ccc2c(c1)CC(c1ccc(Oc3cccc(OCC4CC4)c3)cn1)O2 (centres unmarked) [Example 36, N-(1-(2-(5-(3-(cyclopropylmethoxy)phenoxy)pyridin-2-yl)-2,3-dihydro-1-benzofuran-5-yl)ethyl)acetamide]	–	–
101%	CC(=O)NC(C)c1ccc2nc(-c3ccc(Oc4cccc(OCC5CC5)c4)nc3)oc2c1 (centres unmarked) [Example 37, N-(1-(2-(6-(3-(cyclopropylmethoxy)phenoxy)pyridin-3-yl)-1,3-benzoxazol-6-yl)ethyl)acetamide]	44%	–
100%	CC(=O)NC(C)c1ccc2sc(N3CC(Oc4cccc(OCC5CC5)c4)C3)nc2c1 (centres unmarked) [Example 44, N-(1-(2-(3-(3-(cyclopropylmethoxy)phenoxy)azetidin-1-yl)-1,3-benzothiazol-5-yl)ethyl)acetamide]	14%	–
82%	CC(=O)NC(C)c1ccc2nc(-c3ncc(Oc4cccc(OCC5CC5)c4)cc3C)oc2c1 (centres unmarked) [Example 47, N-(1-(2-(5-(3-(cyclopropylmethoxy)phenoxy)-3-methylpyridin-2-yl)-1,3-benzoxazol-6-yl)ethyl)acetamide]	–	–
94%	CC(=O)NC(C)c1cc2cc(-c3ccc(Oc4cccc(OCC5CC5)c4)cc3)ccc2o1 (centres unmarked) [Example 52, N-(1-(5-(4-(3-(cyclopropylmethoxy)phenoxy)phenyl)-1-benzofuran-2-yl)ethyl)acetamide]	20%	–
94%	CC(=O)NC(C)c1ccc2cn(-c3ccc(Oc4cccc(OCC5CC5)c4)cc3)nc2c1 (centres unmarked) [Example 56, N-(1-(2-(4-(3-(cyclopropylmethoxy)phenoxy)phenyl)-2H-indazol-6-yl)ethyl)acetamide]	–	–
97%	CC(=O)NC(C)c1ccc2cc(-c3ccc(Oc4cccc(OCC5CC5)c4)nc3)oc2c1 (centres unmarked) [Example 67, N-(1-(2-(6-(3-(cyclopropylmethoxy)phenoxy)pyridin-3-yl)-1-benzofuran-6-yl)ethyl)acetamide]	38%	–
94%	CC(=O)NC(C)c1ccc2nc(-c3ccc(Oc4cccc(OCC5CC5)c4)cc3)oc2c1C (centres unmarked) [Example 93, N-(1-(2-(4-(3-(cyclopropylmethoxy)phenoxy)phenyl)-7-methyl-1,3-benzoxazol-6-yl)ethyl)acetamide]	–	–
98%	CC(NC(N)=O)c1ccc2nc(-c3ccc(Oc4cccc(OCC5CC5)c4)nn3)oc2c1 (centres unmarked) [Example 110, 1-(1-(2-(6-(3-(cyclopropylmethoxy)phenoxy)pyridazin-3-yl)-1,3-benzoxazol-6-yl)ethyl)urea]	–	–

The next lines start with the molecule.

SMILES	inhibition at 10 µM (human ACC1)	inhibition at 10 µM (HCT116 cells)	other results
CC(=O)NC(C)c1ccc2nc(N3CC(Oc4cccc(OCC5CC5)c4)C3)oc2c1 (centres unmarked) [Example 1, N-(1-(2-(3-(3-(cyclopropylmethoxy)phenoxy)azetidin-1-yl)-1,3-benzoxazol-6-yl)ethyl)acetamide]	100%	–	HCT116 cell proliferation inhibitory rate (%) at 10 μM (HCT116 cells): 12%
CC(=O)NC(C)c1ccc2nc(N3CC(Oc4cccc(OCC5CC5)c4)C3)oc2c1 (centres unmarked) [Example 1b, N-(1-(2-(3-(3-(cyclopropylmethoxy)phenoxy)azetidin-1-yl)-1,3-benzoxazol-6-yl)ethyl)acetamide]	–	–	ACC1 inhibitory rate (%) at 10 μM (human ACC1; 10 µM): 96%; HCT116 cell proliferation inhibitory rate (%) at 10 μM (HCT116 cells): 32%
CC(=O)NC(C)c1ccc2nc(-c3ccc(Oc4cccc(OCC5CC5)c4)cc3)oc2c1 (centres unmarked) [Example 8, N-(1-(2-(4-(3-(cyclopropylmethoxy)phenoxy)phenyl)-1,3-benzoxazol-6-yl)ethyl)acetamide]	95%	42%	–
CC(=O)NC(C)c1ccc2nc(-c3ccc(Oc4cccc(OCC5CC5)c4)cn3)oc2c1 (centres unmarked) [Example 9, N-(1-(2-(5-(3-(cyclopropylmethoxy)phenoxy)pyridin-2-yl)-1,3-benzoxazol-6-yl)ethyl)acetamide]	99%	45%	–
CC(=O)NC(C)c1ccc2nc(-c3ccc(Oc4cccc(OCC5CC5)c4)cn3)oc2c1 (centres unmarked) [Example 9b, N-(1-(2-(5-(3-(cyclopropylmethoxy)phenoxy)pyridin-2-yl)-1,3-benzoxazol-6-yl)ethyl)acetamide]	–	–	ACC1 inhibitory rate (%) at 10 μM (human ACC1): 99%; HCT116 cell proliferation inhibitory rate (%) at 10 μM (HCT116 cells): 29%
CCCOc1cccc(Oc2ccc(-c3nc4ccc(C(C)NC(C)=O)cc4o3)nc2)c1 (centres unmarked) [Example 12, N-(1-(2-(5-(3-propoxyphenoxy)pyridin-2-yl)-1,3-benzoxazol-6-yl)ethyl)acetamide]	94%	–	–
CCCCOc1cccc(Oc2ccc(-c3nc4ccc(C(C)NC(C)=O)cc4o3)nc2)c1 (centres unmarked) [Example 13, N-(1-(2-(5-(3-butoxyphenoxy)pyridin-2-yl)-1,3-benzoxazol-6-yl)ethyl)acetamide]	86%	19%	–
CCCCCc1cccc(OC2CN(c3nc4ccc(C(C)NC(C)=O)cc4o3)C2)c1 (centres unmarked) [Example 29, N-(1-(2-(3-(3-pentylphenoxy)azetidin-1-yl)-1,3-benzoxazol-6-yl)ethyl)acetamide]	82%	–	–
CC(=O)NC(C)c1ccc2oc(-c3ccc(Oc4cccc(OCC5CC5)c4)cn3)cc2c1 (centres unmarked) [Example 31, N-(1-(2-(5-(3-(cyclopropylmethoxy)phenoxy)pyridin-2-yl)-1-benzofuran-5-yl)ethyl)acetamide]	98%	42%	–
CC(=O)NC(C)c1ccc2c(c1)CC(c1ccc(Oc3cccc(OCC4CC4)c3)cn1)O2 (centres unmarked) [Example 36b, N-(1-(2-(5-(3-(cyclopropylmethoxy)phenoxy)pyridin-2-yl)-2,3-dihydro-1-benzofuran-5-yl)ethyl)acetamide]	–	–	ACC1 inhibitory rate (%) at 10 μM (human ACC1; 10 µM): 101%
